Results: a melting point compilation (Tetko et al.; mined from patent text by program, amines drawn as free bases though some values may be those of a salt)

| melting point [°C] | Structure (SMILES) |
| --- | --- |
| 272 | O=C1c2cccc(O)c2C(=O)N1CC(=O)N1c2ccccc2N(Cc2ccccc2)C(=O)[C@H]2CCC[C@H]21 (relative stereo) |
| 136 to 138 | COc1ccccc1Oc1c(N)nc(N2CCOCC2)nc1OCCO |
| 258 | CC(C)n1cc(-c2ncc(N)nc2-c2ccc(F)cc2)ccc1=O |
| 129 to 130 | COc1ccc2c(c1)C(=O)C(=Cc1ccc(F)cc1)CC2 |
| 209 | CC(=O)C1=C(O)C(=C(C)Nc2cccc(NS(=O)(=O)c3ccccc3)c2)C(=O)OC1=O |
| 208 to 210 | O=C(O)c1cn(CCF)c2c(F)c(F)c(F)cc2c1=O |
| 79 to 81 | N#CCC(=O)c1ccc[nH]1 |
| 245 to 248 | COCCOc1ccc2c(C3C(=O)Nc4ccccc43)ncnc2c1 (centres undefined) |
| 194 to 196 | Oc1ccc(C2CCOC2(c2ccccc2)c2ccc(O)cc2)cc1 (centres undefined) |
| 91 to 93 | CS(=O)(=O)c1nccc(Cl)n1 |
| > 300 | CCCc1nc(N)nc(N)c1N1CCN(c2ccc(C#N)cc2)CC1 |
| 228 | NS(=O)(=O)c1ccc(-c2cn(-c3nc(-c4ccc(F)c(F)c4)cc(C(F)(F)F)n3)cn2)s1 |
| 125 to 126 | CCc1nc(/C=C/c2cn(-c3ccccc3)nc2OCc2ccc(OCc3nc(/C=C/C(=O)O)oc3C)c(OC)c2)cs1 |
| 89 to 90 | N#CC(C=N)CC(=O)c1ccccc1 (centres undefined) |
| 128 to 131 | Cc1ccc(C(=O)c2cccc3c2CCC3C(=O)O)cc1 (centres undefined) |
| 139 to 140 | CN(CC(=O)O)C(=O)CCSC(=O)c1ccccc1 |
| 225 to 227 | CC1CC(=O)NN=C1c1ccc(NC(=O)C(C)(C)C#N)cc1 (centres undefined) |
| 163 to 165 | CCC1CC(=O)C=C(c2ccc(OCC(=O)O)c(Cl)c2Cl)C1 (centres undefined) |
| 160 to 161 | CSc1cc(C)nc(SC)c1NC(=O)CN1CCN(CCCSc2nc3ccccc3o2)CC1 |
| 154 to 156 | CCCCCCOc1ccc(C(=O)Nc2ccccc2Sc2ccccc2-c2nnn[nH]2)cc1 |
| 129 to 130 | CCCc1c(OCCCSc2nnc(SCC(=O)O)s2)ccc(C(C)=O)c1O |
| 140 to 143 | C#CC1=Cc2ccccc2Sc2ccc(S(C)(=O)=O)cc21 |
| 199 to 200 | O=C(Nc1n[nH]c(=S)s1)NC(CC1CCCCC1)C(=O)NCCc1ccccc1 (centres undefined) |
| 153 | c1ccc(CN2CCN(Cc3c[nH]c4ncccc34)CC2)cc1 |
| 122 to 124 | CCCCNS(=O)(=O)c1ccc(N2CCC3(CC2)OCCO3)cc1 |
| 286 to 289 | O=C(O)CCc1c(C=C2C(=O)Nc3ccc(Br)cc32)[nH]c2c1CCCC2 |

| melting point [°C] | Structure (SMILES) |
| --- | --- |
| 169 | CCOC=Nn1c(NC)n[nH]c1=O |
| 125 to 130 | O=C1C(=O)c2ccc(Cl)cc2C2=C1SCC1(CCN(C(=O)c3cccc(Cl)c3)CC1)O2 |
| 165 to 166 | Cc1cccc2c1Sc1nccnc1N2 |
| 123 to 124 | CCCNCCC1Cc2ccc(C3=NNC(=O)CC3)cc2C1 (centres undefined) |
| 222 to 223 | COc1cc2nc(N)nc(-c3ccc(Br)cc3CO)c2cc1OC |
| 264 to 266 | Cc1ccc2c(C3=C(c4cn(C)c5ccccc45)C(=O)NC3=O)cn(C)c2c1 |
| 170 to 172 | COc1cccc(P2(=O)c3ccccc3CN2c2ccccc2)c1 (centres undefined) |
| 232 to 235 | CCCc1nc2c(N)nc3ccccc3c2n1O |
| 156 to 158 | O=C(Nc1ccc2ccc(-c3ccc(Cl)cc3)nc2n1)c1ccccc1 |
| 155 to 157 | COCc1c(C(=O)OC(C)C)ncc2c1c1c(OCc3ccccc3)cccc1n2CC(=O)N(C)Cc1ccccc1 |
| 107 to 108 | O=P(O)(O)CCCCCCC(F)(F)C(F)(F)C(F)(F)C(F)(F)F |
| 186 | Oc1cccc2c1C(n1ccnc1)=CCC2 |
| > 250 | c1ccc(-c2cnc(Nc3ccncn3)s2)cc1 |
| 158 | O=Cc1cccn1CCN1CCC(=C2c3ccccc3CCn3ccnc32)CC1 |
| 138 to 139 | CC1C(=O)Nc2c(Oc3ccccc3Cl)cccc21 (centres undefined) |
| 250 to 252 | CS(=O)c1nccc(-c2nc(=O)c3ccccc3s2)n1 (centres undefined) |
| 134 to 141 | CCc1c(NC(=O)c2cc(S(C)(=O)=O)ccc2OCC(C)C)c(C(N)=O)nn1C1CCN(C(=O)OC(C)(C)C)CC1 |
| 99 to 101 | Cc1c(C)c2c(c(C)c1OCc1ccccc1)C(CN1CCCC1CO)C(C)(C)O2 (mixture of isomers) |
| 166 to 168 | CC[Si](CC)(CC)c1ccc2c(c1)cc(C(=O)Nc1ccc(N3CCC3)nc1)n2Cc1cccc(F)c1 |
| 193 to 195 | NC(=O)c1nc(C2OC(CO)C(O)C2O)n[nH]1 (centres undefined) |
| 126 to 128 | COc1ccc(C(=O)CCC(=O)N[C@@H](C)C(=O)O)cc1F |
| 131 to 133 | COCc1ccsc1-c1nsc2ccc(-n3c(=O)cc(C(F)(F)F)n(C)c3=O)cc12 |
| 100 to 102 | CCOCC(=O)Nc1ncc(Br)s1 |
| 166 to 168 | CCc1cccc(CC)c1NC(=O)NCC1(c2ccccc2)CC1 |
| 166 to 168 | CCCCOCCOc1ccc(-c2ccc3c(c2)C=C(C(=O)Nc2ccc(C/C(=N\O)c4nccn4CCC)cc2)CCN3CC(C)C)cc1 |
| 136 to 138 | Oc1ccc2cc(I)ccc2c1 |

| melting point [°C] | Structure (SMILES) |
| --- | --- |
| 135 to 137 | O=C1CCCCC(c2ccccc2)N1 (centres undefined) |
| 60 | CC(=O)NCCC1CCNCC1 |
| 182 to 183 | Oc1c(Cl)cc(NCCCCCCBr)cc1Cl |
| 170 | CCCNCCC(=O)Nc1ccc2c(c1)C(=O)c1cc(NC(=O)CCNCCC)ccc1C2=O |
| 158 to 160 | O=C1CCC2(CC1)CC(=O)c1ccccc1C2 |
| 97.5 to 99 | CC(=O)NC(C)Cc1ccc(OC(C)=O)cc1 (centres undefined) |
| 175 | COc1ccn2cc(-c3ccc(C)c(C)c3)nc2c1 |
| 255 to 256 | CCOC(=O)c1cc2c(=O)c3cc(C(C)CO)ccc3oc2nc1N (centres undefined) |
| 181 to 182 | CC(CC(=O)O)C(=O)c1ccc(-n2ccnc2)cc1 (centres undefined) |
| 192 | COc1cc2[nH]nc(CN3CCN(c4ccccc4OC)CC3)c2cc1OC |
| 168 to 170 | O=C1COc2ccc(C3=Nc4ccccc4SC3c3ccccn3)cc2N1 (centres undefined) |
| 197 to 198 | O=c1c2cccnc2n(-c2cccc(CO)c2)c(=O)n1Cc1cccnc1 |
| 259 to 261 | COC(=O)c1ncc(Nc2cc(C)[nH]n2)nc1Nc1ccc(Cl)cc1 |
| 168 to 170 | O=[N+]([O-])c1oc2c(NS(=O)(=O)C(F)(F)F)cccc2c1-c1ccccc1 |
| 64 to 80 | CC(=O)SCC(CC(C)C)C(=O)NCCCCCC(N)=O (centres undefined) |
| 231 to 233 | N#CCCCNC(=O)c1n[nH]cc1NC(=O)c1ccccn1 |
| 132 | COC(c1ccc(Cl)cc1)(c1cc2c3c(c1)c(-c1cccc(Cl)c1)cc(=O)n3CCC2)c1nncn1C (centres undefined) |
| 116 to 121 | O=C(O)COC(=O)C=Cc1ccccc1 |
| 120 | C=CCOc1cc(-n2c(=O)cc(C(F)(F)F)n(C)c2=O)c(F)cc1Br |
| 199 to 200 | CCOC1C(NC(C)=O)CC(OC)OC1C (centres undefined) |
| 207 to 208 | NC(=O)c1c(Cl)c(-c2ccccc2)n2c1CN(S(=O)(=O)Nc1ccccc1)CC2 |
| 100 to 102 | CC1(C(=O)C2(C)COCOC2)COCOC1 |
| 140 to 141 | CNC(=O)N1CC(Oc2cccc(Cl)c2)C1 |
| 228 to 230 | COC(=O)c1ccc2c(c1)c(Cc1ccc(C(=O)O)cc1OC)cn2C |
| 92 to 94 | CSNC(=O)c1c(Cl)cccc1[Si](C)(C)C |
| 133 to 137 | O=C1CN(C(=O)OCc2ccccc2)CC(=O)O1 |

| melting point [°C] | Structure (SMILES) |
| --- | --- |
| 221 to 222 | CCOC(=O)c1cn2c(ccc3ccc(Cl)cc32)n1 |
| 203 | CCN(CC)C(=O)C1CCN(Cc2cnc3cc(NC(=O)c4ccc(-c5ccc(F)cc5)cc4)c(C)cc3c2)CC1 |
| 108 to 109 | CSc1ccc(CSc2nnc(-c3ccc4c(c3)CCO4)o2)cc1C(F)(F)F |
| 166 to 168 | Cc1ccc(C)c(OCc2ccccc2/C(=N\O)C(N)=O)c1 |
| 110 to 113 | CCCCc1nc(Cl)c(CC#N)n1Cc1ccc(C#N)cc1 |
| 61 to 63 | CC(Cl)C(=O)CCCCN1C(=O)c2ccccc2C1=O (centres undefined) |
| 153 | CC(C)(CC(F)(F)F)NC(=N)NC#N |
| 131 to 132 | C#CCOCc1nnc(Cl)c2ccccc12 |
| 133 to 135 | Cc1cc(C(O)(C(F)(F)F)C(F)(F)F)cc(C)c1SCC(=O)O |
| 226 to 227 | COC(=O)c1ccc(-c2ccc3cc(OS(=O)(=O)C(F)(F)F)c(C45CC6CC(CC(C6)C4)C5)cc3c2)cc1 |
| 69 to 70 | CCOC(=O)C=Cc1cccc(Cl)c1Cl |
| 142 | CCCCc1ccc2c(=O)c(O)c(-c3cc(O)c(O)c(O)c3)oc2c1 |
| > 290 | CCOC(=O)c1[nH]c2cc(Cl)cc(Cl)c2c1NCC(=O)c1ccccc1F |
| 159 to 161 | CCOC(=O)c1c(C)nc(N(C)N)c([N+](=O)[O-])c1Cl |
| 194 to 195 | N#Cc1cc(N2CCN(CC[C@H]3CC[C@H](NS(=O)(=O)c4cccnc4)CC3)CC2)cc(C(F)(F)F)c1 |
| 105 to 107 | CCC(O)(CC)c1cc(C)c(-c2cccc(OCc3ccc(CO)c(CO)c3)c2C)c(C)c1 |
| 235 to 239 | CN(C)c1c(-c2ccc(-c3ccccc3)cc2)nc2ccc(F)cc2c1C(=O)O |
| 150 to 152 | O=C1NC(=O)C(Cc2ccc3cc(OCc4ccccc4F)ccc3c2)S1 (centres undefined) |
| 160 to 161 | CCOc1nn(Cc2ccnc(OCc3cn4c(Cl)cccc4n3)c2)cc1CCC(=O)O |
| 119 to 123 | C=C1c2ccccc2CC(=NO)Cc2ccccc21 |
| 83 to 87 | CCCOc1ccc(OC)cc1C(N)=O |
| 85 to 87 | COc1ccc(C(C)=Cc2ccncc2)c2c1OC1(CCCC1)C2 |
| 170 to 172 | O=C(O)COc1ccc2c(c1)CC(NS(=O)(=O)c1ccc(Cl)cc1)C2 (centres undefined) |
| 229 to 231 | Cc1cc(C)c(-c2c(O)c(Cl)c(-c3ccc(Cl)cc3)oc2=O)c(C)c1 |
| 103 to 104 | COC(=O)CSc1nc(N)c(C=O)nc1Cl |

| Structure (SMILES) | melting point [°C] |
| --- | --- |
| O=[N+]([O-])N=C1NCCN1Cc1cc(Br)no1 | 149 |
